Measured values taken from paper PMC5803236 (Scientific Reports, 2018).

Key:
[1] = target: hemagglutinin (HA) of H1N1 A/Korea/01/2009 (Pandemic) (Influenza A virus (A/Korea/01/2009(H1N1)), UniProt C5MQE6)
[2] = target: T1, hemagglutinin (HA) of H1N1 A/Puerto Rico/8/1934 (Influenza A virus (A/Puerto Rico/8/1934(H1N1)), UniProt P03452); format: cell-based
T1 construct: native HA on whole virus (virus antigen, 4 HAU); not purified protein

Which results are given for `CC(=O)N[C@H]1[C@H]([C@H](O)[C@H](O)CO)O[C@@](OC[C@H]2O[C@@H](O[C@H]3[C@H](O)[C@@H](O)C(O)O[C@@H]3CO)[C@H](O)[C@@H](O)[C@H]2O)(C(=O)O)C[C@@H]1O` (some centres unmarked) [6′-sialyllactose]?
MIC [1]: > 200 mM; MIC [2]: > 200 mM
